Patent US10287298B2, “Nitrogen-containing analogs of salinomycin, synthesis and use against cancer stem cells and malaria” (Centre National de la Recherche Scientifique (CNRS), priority 2014, dated 2019)

Tests used:
HMLER CD24− cells [1] = assay: Cell viability assay (CellTiter-Blue), IC50 assessment; type: cell-based, Human
Description: (§1) FIG. 1 represents viability of HMLER CD24− cells (full line) and HMLER CD24+ cells (dotted line) at different concentration of salinomycine (1A), AM5 […] or AM13 (1D).
(§2) Cell viability assay was carried out by plating 1000 cells per well in 96-well plates. NAC (2 mM, A9165 Sigma) or DFO (1 mM) were pretreated 2 hours prior to the compound treatment. CellTiter-Blue® Reagent (Promega; G3582) (20 μl/well) was added after 24, 48, or 72 hours treatment and cells were incubated for 1 hour before recording fluorescence (560(20)Ex/590(10)Em) using a Perkin Elmer Wallac 1420 Victor2 Microplate Reader.

HMLER CD24+ cells = assay: as above; type: cell-based; details: Homo sapiens, read-out: IC50 CD24+
Description: as §1, §2

BT20 = assay: Cell death IC50, Annexin V-FITC/PI flow cytometry; type: cell-based; details: Homo sapiens, BT-20, 108 h, read-out: IC50 BT20
Description: (§3) The cells were seeded in a 6-well plate at density 5.105 cells/well and cultured overnight. The cells were then treated with various concentration (15, 30, 100, 500, 1000 and 10.000 nM) of salinomycine, AM5 and AM23 for 72 h, 96 h and 108 h. After treatment, cell death was quantified using Annexin V-FITC/Propidium Iodide (PI) assay according to the manufacturer's protocol (FITC Annexin V Apoptosis Detection Kit II, 556570, BD Pharmingen™) and analyzed by a LSRFortessa™ flow cytometer (BD Bioscience, San Jose, Calif.). The data were processed using Cell Quest software (BD Biosciences). Dose-response cell death curves were determined for indicated time.
(§4) For tumor cells, the cells are classified in function of their sensitivity of drugs. Here, the most sensitive cells are incubated for 72 h, the middle sensitive cells for 96 h and the less sensitive or resistant cells are incubated for 108 h with drug at several concentrations.
(§5) Concentrations of 30 nM, 500 nm and 1 μM were used for determining the IC50 of drugs.
(§6) Intervals][…]] mean that IC50 is included in this interval with exclusion of the valor 30 nM.

BT474 = assay: Cell death IC50, Annexin V-FITC/PI flow cytometry; type: cell-based; details: Homo sapiens, BT-474, 96 h, read-out: IC50 BT474
Description: as §3, §4, §5, §6

BT549 = assay: Cell death IC50, Annexin V-FITC/PI flow cytometry; type: cell-based; details: Homo sapiens, BT-549, 108 h, read-out: IC50 BT549
Description: as §3, §4, §5, §6

HBL100 = assay: Cell death IC50, Annexin V-FITC/PI flow cytometry; type: cell-based; details: Homo sapiens, HBL-100, read-out: IC50 HBL100
Description: as §3, §4, §5, §6

HMLE W2 = assay: Cell death IC50, Annexin V-FITC/PI flow cytometry; type: cell-based; details: Homo sapiens, read-out: IC50 HMLE W2
Description: as §3, §4, §5, §6

HMLER CD24low = assay: Cell death IC50, Annexin V-FITC/PI flow cytometry; type: cell-based; details: Homo sapiens, 72 h, read-out: IC50 HMLER CD24low
Description: as §3, §4, §5, §6

HMLER GFP = assay: Cell death IC50, Annexin V-FITC/PI flow cytometry; type: cell-based; details: Homo sapiens; 1rst sensibility (72 h)
Description: as §3, §4, §5, §6

HMLER ID2 = assay: Cell death IC50, Annexin V-FITC/PI flow cytometry; type: cell-based; details: Homo sapiens, 72 h, read-out: IC50 HMLER ID2
Description: as §3, §4, §5, §6

HMLER shECAD = assay: Cell death IC50, Annexin V-FITC/PI flow cytometry; type: cell-based; details: Homo sapiens, 72 h, read-out: IC50 HMLER shECAD
Description: as §3, §4, §5, §6

MCF-7 = assay: Cell death IC50, Annexin V-FITC/PI flow cytometry; type: cell-based; details: Homo sapiens, MCF7, 72 h, read-out: IC50 MCF-7
Description: as §3, §4, §5, §6

MDA-MB-134 = assay: Cell death IC50, Annexin V-FITC/PI flow cytometry; type: cell-based; details: Homo sapiens, 96 h, read-out: IC50 MDA-MB-134
Description: as §3, §4, §5, §6

MDA-MB-231 = assay: Cell death IC50, Annexin V-FITC/PI flow cytometry; type: cell-based; details: Homo sapiens, MDA-MB-231, 96 h, read-out: IC50 MDA-MB-231
Description: as §3, §4, §5, §6

MDA-MB-361 = assay: Cell death IC50, Annexin V-FITC/PI flow cytometry; type: cell-based; details: Homo sapiens, MDA-MB-361, 96 h, read-out: IC50 MDA-MB-361
Description: as §3, §4, §5, §6

MDA-MD-157 = assay: Cell death IC50, Annexin V-FITC/PI flow cytometry; type: cell-based; details: Homo sapiens, 96 h, read-out: IC50 MDA-MD-157
Description: as §3, §4, §5, §6

T47D = assay: Cell death IC50, Annexin V-FITC/PI flow cytometry; type: cell-based; details: Homo sapiens, Resistant (108 h)
Description: as §3, §4, §5, §6

Zr75.1 = assay: Cell death IC50, Annexin V-FITC/PI flow cytometry; type: cell-based; details: Homo sapiens, ZR-75-1, 72 h, read-out: IC50 Zr75.1
Description: as §3, §4, §5, §6

SW480 = assay: Cell death IC50, Annexin V-FITC/PI flow cytometry; type: cell-based; details: Homo sapiens, SW480, 108 h, read-out: IC50 SW480
Description: as §3, §4, §5, §6
(§7) The SW620 and SW480 cell lines are from colon tumors.

SW620 = assay: Cell death IC50, Annexin V-FITC/PI flow cytometry; type: cell-based; details: Homo sapiens, SW-620, 108 h, read-out: IC50 SW620
Description: as §3, §4, §5, §6, §7

HMLER CD24− cells [2] = assay: Cell proliferation and formation of mammospheres; type: cell-based, Human
Source text: FIG. 2 is a representative phase contrast photomicrographs of mammospheres formed after 11 days in the absence of any added compound (Control) or in the presence of a defined amount of salinomycine, AM5, AM9 or AM13. […] The size of the mammospheres is correlated with progenitor cell proliferation, whereas the number of mammospheres formed after serial passages at clonal density is correlated with the self-renewal capacity of primitive Cancer Stem Cells. […]
FIG. 9 represents images of the third generation of mammospheres formed from individual HMLER CD24low cells treated during 7 days with the indicated drug. The size of the mammospheres is correlated with progenitor cell proliferation capacity, whereas the number of mammospheres formed after serial passages at clonal density is correlated with the self-renewal capacity of primitive Cancer Stem Cells.
AM5, AM9, AM13 and salinomycine were assessed for their capability to inhibit cell proliferation and formation of mammospheres. […]
AM5 and AM23 and salinomycine were assessed for their capability to inhibit cell proliferation and formation of mammospheres.

HMLER CD24low cells = assay: Reactive Oxygen Species (ROS) levels by flow cytometry (CM-H2DCF-DA); type: cell-based, Human; details: 30 nM, 500 nM or 1 μM, 48 h
Description: Reactive Oxygen Species (ROS) levels were measured by flow cytometry or by confocal scanning immunofluorescence microscopy using CM-H2DCF-DA (C6827, invitrogen). Briefly, U2OS and HMLER CD24low cells were treated as indicated in FIG. 11 (30 nM, 500 nM or 1 μM of salinomycine, AM5 or AM23 or untreated during 48 h). Then, these cells were trypsined and incubated with 5 μM CM-H2DCF-DA at 37° C. for 40 min, washed once with PBS and were counterstained with DAPI (0.5 μg/ml) to exclude non-viable cells. The mean fluorescence intensity was determined as ROS production by flow cytometry with LSRFortessa™ cytometer (BD Bioscience, San Jose, Calif.). For immunofluorescence microscopy analysis, cells were seeded on coverslips and were treated with salinomycine derivatives (injection in culture medium then treatment during 24 h, 48 h and 72 h). LysoTracker® Red DND-99 (L-7528, Life technologies) was used to visualize lysosomes. Then, cells were fixed with 4% PFA/PBS. DAPI was used to visualize nuclear DNA. Cell images were obtained using a Deltavision real-time microscope (Applied Precision) or an ApoTome.2 microscope (Zeiss). ImageJ was used for further image processing.
FACS analysis of ROS in cells treated for 48 h is represented in FIG. 17.

MDA-MB-231 cells = assay: Dead cells by DIOC6(3)/DAPI test with cathepsine B inhibitor; type: cell-based, Human; details: 500 nM; COA74-Me 30 μM; 48 h, 96 h, 108 h
Description: From the treatment, dead cells were assessed by DIOC6(3)/DAPI test and analyzed by flow cytometry.

[3] = third generation of mammospheres, HMLER CD24low cells treated 7 days

Structure (SMILES): CCC(C(=O)O)[C@H]1CC[C@H](C)C([C@@H](C)[C@H](O)[C@H](C)C(=O)[C@H](CC)[C@H]2O[C@]3(C=C[C@@H](NC4CC4)[C@]4(CC[C@@](C)([C@H]5CC[C@](O)(CC)[C@H](C)O5)O4)O3)[C@H](C)C[C@@H]2C)O1 (some centres unmarked) [AM23, Sal-cyclopropylamine]
- IC50 (HMLER CD24− cells [1]; Homo sapiens, read-out: IC50 CD24−): 43 nM
- activity against CD24 cells compared with salinomycine (HMLER CD24− cells [1]; comparison of the IC50 results): significantly improved activity
- IC50 (HMLER CD24+ cells): 1200 nM
- IC50 (BT20): 30 to 500 nM
- IC50 (BT474): > 1000 nM
- IC50 (BT549): > 1000 nM
- IC50 (HBL100): > 1000 nM
- IC50 (HMLE W2): 1000 nM
- IC50 (HMLER CD24low): < 30 nM
- IC50 (HMLER GFP): 30 nM
- IC50 (HMLER ID2): < 30 nM
- IC50 (HMLER shECAD): 30 nM
- IC50 (MCF-7): 30 to 500 nM
- IC50 (MDA-MB-134): > 1000 nM
- IC50 (MDA-MB-231): > 1000 nM
- IC50 (MDA-MB-361): 1000 nM
- IC50 (MDA-MD-157): 30 to 500 nM
- IC50 (T47D): > 1000 nM
- IC50 (Zr75.1): 30 to 500 nM
- IC50 (SW480): 30 to 500 nM
- IC50 (SW620): 30 to 500 nM
- inhibition of cell proliferation, efficacy in comparison with salinomycine (HMLER CD24− cells [2]; at 30 nM): ten-fold improved efficacy
- number of mammospheres (HMLER CD24− cells [2]; [3]): reduced the number of mammospheres
- size of mammospheres (HMLER CD24− cells [2]; [3]): reduced by the highest dose
- ROS induction (HMLER CD24low cells): induces ROS
- death of MDA-MB-231 cells in combination with cathepsine B inhibition (MDA-MB-231 cells): combine themselves to induce the death
